Data: patent publication US20260262643A1, “HERBICIDAL BENZOXAZINES” (FMC CORPORATION, priority 2022, published 2026)

Tests used:
ragweed [1] = assay: Test C postemergence; assay type: in vivo, Ambrosia artemisiifolia; settings: 10 days
Summary of the method: (§1)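 Seeds in loam–sand blend received preemergence directed soil spray of test chemicals in non-phytotoxic solvent with surfactant; postemergence treatment was applied at one- to two-leaf stage (2–10 cm). After 10 days in greenhouse, injury rated visually versus untreated controls, 0 (no effect) to 100 (complete control).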

soybean [2] = assay: Test C preemergence; assay type: in vivo, Glycine max; settings: 0 to 100 scale (0 no effect, 100 complete control); for Plant response rating, Soybean: Preemergence, 500 g ai/ha, visual rating after 10 days; for Soybean plant response rating: Test C, preemergence, 125 g ai/ha
Summary of the method: as §1

kochia [3] = assay: Test C preemergence; assay type: in vivo, Bassia scoparia; settings: 0 to 100 scale (0 no effect, 100 complete control); for Plant response rating, Kochia: Preemergence, 500 g ai/ha, visual rating after 10 days; for Kochia plant response rating: Test C, preemergence, 125 g ai/ha
Summary of the method: as §1

blackgrass [4] = assay: Test C postemergence; assay type: in vivo, Alopecurus myosuroides; settings: 10 days
Summary of the method: as §1

corn [5] = assay: Test C postemergence; assay type: in vivo, Zea mays; settings: 10 days
Summary of the method: as §1

horseweed = assay: Test C postemergence; assay type: in vivo, Erigeron canadensis; settings: 10 days
Summary of the method: as §1

ducksalad = assay: Test D flooded paddy test; assay type: in vivo, Heteranthera limosa; settings: 250 g ai/ha, applied to paddy water, visual rating after 13 to 14 days, scale 0 to 100 (0 no effect, 100 complete control)
Summary of the method: (§2)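 Post-flood water application at the 2-leaf stage; 3 cm flood depth kept constant; visual control rating 0–100 after 13–14 days greenhouse growth.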

barnyardgrass [6] = assay: Test C preemergence; assay type: in vivo, Echinochloa crusgalli; settings: 0 to 100 scale (0 no effect, 100 complete control); for Plant response rating, Barnyardgrass: Preemergence, 500 g ai/ha, visual rating after 10 days; for Barnyardgrass plant response rating: Test C, preemergence, 125 g ai/ha
Summary of the method: as §1

barnyardgrass [7] = assay: Test D flooded paddy test; assay type: in vivo, Echinochloa crus-galli; settings: 250 g ai/ha, applied to paddy water, visual rating after 13 to 14 days, scale 0 to 100 (0 no effect, 100 complete control)
Summary of the method: as §2

corn [8] = assay: Test C preemergence; assay type: in vivo, Zea mays; settings: 0 to 100 scale (0 no effect, 100 complete control); for Plant response rating, Corn: Preemergence, 500 g ai/ha, visual rating after 10 days; for Corn plant response rating: Test C, preemergence, 125 g ai/ha
Summary of the method: as §1

ragweed [9] = assay: Test C preemergence; assay type: in vivo, Ambrosia artemisiifolia; settings: 0 to 100 scale (0 no effect, 100 complete control); for Plant response rating, Ragweed: Preemergence, 500 g ai/ha, visual rating after 10 days; for Ragweed plant response rating: Test C, preemergence, 125 g ai/ha
Summary of the method: as §1

galium = assay: Test C postemergence; assay type: in vivo, Galium aparine; settings: 10 days
Summary of the method: as §1

green foxtail [10] = assay: Test C postemergence; assay type: in vivo, Setaria viridis; settings: 10 days
Summary of the method: as §1

rice = assay: Test D flooded paddy test; assay type: in vivo, Oryza sativa; settings: 250 g ai/ha, applied to paddy water, visual rating after 13 to 14 days, scale 0 to 100 (0 no effect, 100 complete control)
Summary of the method: as §2

wheat [11] = assay: Test C postemergence; assay type: in vivo, Triticum aestivum; settings: 10 days
Summary of the method: as §1

pigweed, palmer [12] = assay: Test C preemergence; assay type: in vivo, Amaranthus palmeri; settings: 0 to 100 scale (0 no effect, 100 complete control); for Plant response rating, Pigweed, Palmer: Preemergence, 500 g ai/ha, visual rating after 10 days; for Pigweed, Palmer plant response rating: Test C, preemergence, 125 g ai/ha
Summary of the method: as §1

blackgrass [13] = assay: Test C preemergence; assay type: in vivo, Alopecurus myosuroides; settings: 0 to 100 scale (0 no effect, 100 complete control); for Plant response rating, Blackgrass: Preemergence, 500 g ai/ha, visual rating after 10 days; for Blackgrass plant response rating: Test C, preemergence, 125 g ai/ha
Summary of the method: as §1

oat, wild [14] = assay: Test C postemergence; assay type: in vivo, Avena fatua; settings: 10 days
Summary of the method: as §1

wheat [15] = assay: Test C preemergence; assay type: in vivo, Triticum aestivum; settings: 0 to 100 scale (0 no effect, 100 complete control); for Plant response rating, Wheat: Preemergence, 500 g ai/ha, visual rating after 10 days; for Wheat plant response rating: Test C, preemergence, 125 g ai/ha
Summary of the method: as §1

ryegrass, Italian [16] = assay: Test C preemergence; assay type: in vivo, Lolium multiflorum; settings: 0 to 100 scale (0 no effect, 100 complete control); for Plant response rating, Ryegrass, Italian: Preemergence, 500 g ai/ha, visual rating after 10 days; for Ryegrass, Italian plant response rating: Test C, preemergence, 125 g ai/ha
Summary of the method: as §1

soybean [17] = assay: Test C postemergence; assay type: in vivo, Glycine max; settings: 10 days
Summary of the method: as §1

pigweed, palmer [18] = assay: Test C postemergence; assay type: in vivo, Amaranthus palmeri; settings: 10 days
Summary of the method: as §1

sedge, umbrella = assay: Test D flooded paddy test; assay type: in vivo, Cyperus difformis; settings: 250 g ai/ha, applied to paddy water, visual rating after 13 to 14 days, scale 0 to 100 (0 no effect, 100 complete control)
Summary of the method: as §2

kochia [19] = assay: Test C postemergence; assay type: in vivo, Bassia scoparia; settings: 10 days
Summary of the method: as §1

green foxtail [20] = assay: Test C preemergence; assay type: in vivo, Setaria viridis; settings: 0 to 100 scale (0 no effect, 100 complete control); for Plant response rating, Foxtail, Green: Preemergence, 500 g ai/ha, visual rating after 10 days; for Foxtail, Green plant response rating: Test C, preemergence, 125 g ai/ha
Summary of the method: as §1

ryegrass, Italian [21] = assay: Test C postemergence; assay type: in vivo, Lolium multiflorum; settings: 10 days
Summary of the method: as §1

barnyardgrass [22] = assay: Test C postemergence; assay type: in vivo, Echinochloa crusgalli; settings: 10 days
Summary of the method: as §1

oat, wild [23] = assay: Test C preemergence; assay type: in vivo, Avena fatua; settings: 0 to 100 scale (0 no effect, 100 complete control); for Plant response rating, Oat, Wild: Preemergence, 500 g ai/ha, visual rating after 10 days; for Oat, Wild plant response rating: Test C, preemergence, 125 g ai/ha
Summary of the method: as §1

[24] = 125 g ai/ha, postemergence, 0 to 100 scale, 0 no effect, 100 complete control
[25] = Postemergence, 500 g ai/ha, visual 0 to 100 scale (0 no effect, 100 complete control)

CCc1ccc(-n2cnc(C(C)C)n2)cc1C(=O)N1C[C@H](C)Oc2c(C)cccc21 [Compound 240]
Plant response rating, Ragweed (ragweed [1]; [24]): 50 | Plant response rating, Ragweed (ragweed [1]; [25]): 80 | Plant response rating, Soybean (soybean [2]): 100 | Soybean plant response rating (soybean [2]): 100 | Plant response rating, Kochia (kochia [3]): 100 | Kochia plant response rating (kochia [3]): 70 | Plant response rating, Blackgrass (blackgrass [4]; [24]): 80 | Plant response rating, Blackgrass (blackgrass [4]; [25]): 90 | Plant response rating, Corn (corn [5]; [24]): 60 | Plant response rating, Corn (corn [5]; [25]): 80 | Plant response rating, Horseweed (horseweed; [24]): 0 | Plant response rating, Horseweed (horseweed; [25]): 70 | Plant response rating, Ducksalad (Flood) (ducksalad): 80 | Plant response rating, Barnyardgrass (barnyardgrass [6]): 100 | Barnyardgrass plant response rating (barnyardgrass [6]): 90 | Plant response rating, Barnyardgrass (Flood) (barnyardgrass [7]): 35 | Plant response rating, Corn (corn [8]): 60 | Corn plant response rating (corn [8]): 70 | Plant response rating, Ragweed (ragweed [9]): 20 | Ragweed plant response rating (ragweed [9]): 10 | Plant response rating, Galium (galium; [24]): 100 | Plant response rating, Galium (galium; [25]): 100 | Plant response rating, Foxtail, Green (green foxtail [10]; [24]): 80 | Plant response rating, Foxtail, Green (green foxtail [10]; [25]): 90 | Plant response rating, Rice (Flood) (rice): 10 | Plant response rating, Wheat (wheat [11]; [24]): 20 | Plant response rating, Wheat (wheat [11]; [25]): 50 | Plant response rating, Pigweed, Palmer (pigweed, palmer [12]): 100 | Pigweed, Palmer plant response rating (pigweed, palmer [12]): 100 | Plant response rating, Blackgrass (blackgrass [13]): 90 | Blackgrass plant response rating (blackgrass [13]): 60 | Plant response rating, Oat, Wild (oat, wild [14]; [24]): 60 | Plant response rating, Oat, Wild (oat, wild [14]; [25]): 70 | Plant response rating, Wheat (wheat [15]): 90 | Wheat plant response rating (wheat [15]): 60 | Plant response rating, Ryegrass, Italian (ryegrass, Italian [16]): 100 | Ryegrass, Italian plant response rating (ryegrass, Italian [16]): 100 | Plant response rating, Soybean (soybean [17]; [24]): 100 | Plant response rating, Soybean (soybean [17]; [25]): 100 | Plant response rating, Pigweed, Palmer (pigweed, palmer [18]; [24]): 90 | Plant response rating, Pigweed, Palmer (pigweed, palmer [18]; [25]): 100 | Plant response rating, Sedge, Umbrella (Flood) (sedge, umbrella): 100 | Plant response rating, Kochia (kochia [19]; [24]): 30 | Plant response rating, Kochia (kochia [19]; [25]): 90 | Plant response rating, Foxtail, Green (green foxtail [20]): 100 | Foxtail, Green plant response rating (green foxtail [20]): 100 | Plant response rating, Ryegrass, Italian (ryegrass, Italian [21]; [24]): 70 | Plant response rating, Ryegrass, Italian (ryegrass, Italian [21]; [25]): 90 | Plant response rating, Barnyardgrass (barnyardgrass [22]; [24]): 40 | Plant response rating, Barnyardgrass (barnyardgrass [22]; [25]): 80 | Plant response rating, Oat, Wild (oat, wild [23]): 90 | Oat, Wild plant response rating (oat, wild [23]): 90

CCc1ncn(-c2ccc(C)c(C(=O)N3CC(C(F)(F)F)Oc4c(Cl)cccc43)c2)n1 (single isomer, unassigned) [Compound 218]
Plant response rating, Ragweed (ragweed [1]; [24]): 80 | Plant response rating, Ragweed (ragweed [1]; [25]): 80 | Plant response rating, Soybean (soybean [2]): 100 | Soybean plant response rating (soybean [2]): 90 | Plant response rating, Kochia (kochia [3]): 100 | Kochia plant response rating (kochia [3]): 90 | Plant response rating, Blackgrass (blackgrass [4]; [24]): 90 | Plant response rating, Blackgrass (blackgrass [4]; [25]): 100 | Plant response rating, Corn (corn [5]; [24]): 70 | Plant response rating, Corn (corn [5]; [25]): 70 | Plant response rating, Horseweed (horseweed; [24]): 0 | Plant response rating, Horseweed (horseweed; [25]): 70 | Plant response rating, Ducksalad (Flood) (ducksalad): 60 | Plant response rating, Barnyardgrass (barnyardgrass [6]): 100 | Barnyardgrass plant response rating (barnyardgrass [6]): 100 | Plant response rating, Barnyardgrass (Flood) (barnyardgrass [7]): 0 | Plant response rating, Corn (corn [8]): 60 | Corn plant response rating (corn [8]): 20 | Plant response rating, Ragweed (ragweed [9]): 80 | Ragweed plant response rating (ragweed [9]): 20 | Plant response rating, Galium (galium; [24]): 100 | Plant response rating, Galium (galium; [25]): 100 | Plant response rating, Foxtail, Green (green foxtail [10]; [24]): 90 | Plant response rating, Foxtail, Green (green foxtail [10]; [25]): 90 | Plant response rating, Rice (Flood) (rice): 0 | Plant response rating, Wheat (wheat [11]; [24]): 60 | Plant response rating, Wheat (wheat [11]; [25]): 90 | Plant response rating, Pigweed, Palmer (pigweed, palmer [12]): 100 | Pigweed, Palmer plant response rating (pigweed, palmer [12]): 100 | Plant response rating, Blackgrass (blackgrass [13]): 80 | Blackgrass plant response rating (blackgrass [13]): 40 | Plant response rating, Oat, Wild (oat, wild [14]; [24]): 30 | Plant response rating, Oat, Wild (oat, wild [14]; [25]): 80 | Plant response rating, Wheat (wheat [15]): 80 | Wheat plant response rating (wheat [15]): 30 | Plant response rating, Ryegrass, Italian (ryegrass, Italian [16]): 90 | Ryegrass, Italian plant response rating (ryegrass, Italian [16]): 90 | Plant response rating, Soybean (soybean [17]; [24]): 100 | Plant response rating, Soybean (soybean [17]; [25]): 100 | Plant response rating, Pigweed, Palmer (pigweed, palmer [18]; [24]): 90 | Plant response rating, Pigweed, Palmer (pigweed, palmer [18]; [25]): 90 | Plant response rating, Sedge, Umbrella (Flood) (sedge, umbrella): 80 | Plant response rating, Kochia (kochia [19]; [24]): 90 | Plant response rating, Kochia (kochia [19]; [25]): 100 | Plant response rating, Foxtail, Green (green foxtail [20]): 100 | Foxtail, Green plant response rating (green foxtail [20]): 100 | Plant response rating, Ryegrass, Italian (ryegrass, Italian [21]; [24]): 80 | Plant response rating, Ryegrass, Italian (ryegrass, Italian [21]; [25]): 90 | Plant response rating, Barnyardgrass (barnyardgrass [22]; [24]): 100 | Plant response rating, Barnyardgrass (barnyardgrass [22]; [25]): 100 | Plant response rating, Oat, Wild (oat, wild [23]): 90 | Oat, Wild plant response rating (oat, wild [23]): 60
